As usually defined, the EC50 is the concentration needed to bring the measured effect to its halfway point.

In the first assay the test system is HBV rcDNA in HepDE19 cells. Nature of the assay: HepDE19 assay with bDNA quantitation of HBV rcDNA. Format: cell-based, hepatitis B virus. The following applies: HepDE19 cells, 7 day incubation, rcDNA measured by Quantigene 2.0 bDNA assay; top concentration 25 µM; read-out: DE-19bDNA EC50. The procedure:
HepDE19 Assay With bDNA Quantitation of HBV rcDNA
HepDE19 (50,000 cells/well) were plated in 96-well collagen-coated tissue-culture treated microtiter plates in DMEM/F12 medium supplemented with 10% fetal bovine serum, 1% penicillin-streptomycin and 1 µg/mL tetracycline and incubated in a humidified incubator at 37° C. and 5% CO2 overnight. Next day, the cells were switched to fresh medium without tetracycline and incubated for 4 hours at 37° C. and 5% CO2. […] The final DMSO concentration in the assay was 0.5%. The plates were incubated for 7 days in a humidified incubator at 37° C. and 5% CO2. Following a 7 day-incubation, the level of rcDNA present in the inhibitor-treated wells was measured using a Quantigene 2.0 bDNA assay kit (Affymetrix, Santa Clara, CA) with HBV specific custom probe set and manufacturers instructions. Concurrently, the effect of compounds on cell viability was assessed using replicate plates, plated at a density of 5,000 cells/well and incubated for 4 days, to determine the ATP content as a measure of cell viability using the cell-titer glo reagent (CTG; Promega Corporation, Madison, WI) as per manufacturer’s instructions.
Representative compounds of the disclosure were tested for their abilities to inhibit formation of relaxed circular DNA (rcDNA) in a HepDE19 assay, as described elsewhere herein.
For `CC(c1n[nH]c(=O)c2cc(F)c(F)cc12)N(C)C(=O)c1cc2c(C(F)F)cccn2c1` (single isomer, unassigned) [Compound 99, N-(1-(6,7-difluoro-4-oxo-3,4-dihydrophthalazin-1-yl)ethyl)-8-(difluoromethyl)-N-methylindolizine-2-carboxamide], the EC50 came to 10 nM.
Still for that read-out and setting: the value for `CC(C)CN(C(=O)Nc1ccc(F)cc1)C(C)c1n[nH]c(=O)c2cc(F)ccc12` (single isomer, unassigned) [Compound 20, 1-(1-(6-fluoro-4-oxo-3,4-dihydrophthalazin-1-yl)ethyl)-3-(4-fluorophenyl)-1-isobutylurea] was 8 nM; that for `CC(c1n[nH]c(=O)c2cc(F)c(F)cc12)N(C)C(=O)c1ccc2[nH]ncc2c1` (single isomer, unassigned) [Compound 111, N-(1-(6,7-difluoro-4-oxo-3,4-dihydrophthalazin-1-yl)ethyl)-N-methyl-1H-indazole-5-carboxamide] was 8880 nM.
On to `CC(c1n[nH]c(=O)c2cc(F)c(F)cc12)N(C)C(=O)c1ccc2[nH]ncc2c1` (single isomer, unassigned) [Compound 110, N-(1-(6,7-difluoro-4-oxo-3,4-dihydrophthalazin-1-yl)ethyl)-N-methyl-1H-indazole-5-carboxamide], for which the half-maximal effective concentration (EC50) is > 25000 nM.
The same measure, in the same setting: with `CC(c1n[nH]c(=O)c2cc(F)c(F)cc12)N(C)C(=O)c1cc(F)c(C(F)F)c(F)c1` (single isomer, unassigned) [Compound 108, N-(1-(6,7-difluoro-4-oxo-3,4-dihydrophthalazin-1-yl)ethyl)-4-(difluoromethyl)-3,5-difluoro-N-methylbenzamide] the figure was 9950 nM.
Still for that read-out and setting: the value for `CC(c1n[nH]c(=O)c2cc(F)c(F)cc12)N(C)C(=O)c1ccc2c(ccn2C)c1` (single isomer, unassigned) [Compound 106, N-(1-(6,7-difluoro-4-oxo-3,4-dihydrophthalazin-1-yl)ethyl)-N,1-dimethyl-1H-indole-5-carboxamide] was 4030 nM.
Same read-out and setting: with `CC(c1n[nH]c(=O)c2cc(F)c(F)cc12)N(C)C(=O)c1cc2sc(F)cc2[nH]1` (single isomer, unassigned) [Compound 102, N-(1-(6,7-difluoro-4-oxo-3,4-dihydrophthalazin-1-yl)ethyl)-2-fluoro-N-methyl-4H-thieno[3,2-b]pyrrole-5-carboxamide] the figure was 3770 nM; with `CC(c1n[nH]c(=O)c2cc(F)c(F)cc12)N(C)C(=O)c1ccc2ccn(C)c2c1` (single isomer, unassigned) [Compound 105, N-(1-(6,7-difluoro-4-oxo-3,4-dihydrophthalazin-1-yl)ethyl)-N,1-dimethyl-1H-indole-6-carboxamide], 1000 nM; with `CC(c1n[nH]c(=O)c2cc(F)c(F)cc12)N(C)C(=O)c1cc(F)c(Br)c(F)c1` (single isomer, unassigned) [Compound 100, 4-bromo-N-(1-(6,7-difluoro-4-oxo-3,4-dihydrophthalazin-1-yl)ethyl)-3,5-difluoro-N-methylbenzamide], 4690 nM.
Take `CC(c1n[nH]c(=O)c2cc(F)c(F)cc12)N(C)C(=O)c1cc(F)c(Br)c(F)c1` (single isomer, unassigned) [Compound 101, 4-bromo-N-(1-(6,7-difluoro-4-oxo-3,4-dihydrophthalazin-1-yl)ethyl)-3,5-difluoro-N-methylbenzamide]: the EC50 worked out at 50 nM.
The same measure, in the same setting: the value for `CC(c1n[nH]c(=O)c2cc(F)c(F)cc12)N(C)C(=O)c1cc(F)c(Cl)c(F)c1` (single isomer, unassigned) [Compound 94, 4-chloro-N-(1-(6,7-difluoro-4-oxo-3,4-dihydrophthalazin-1-yl)ethyl)-3,5-difluoro-N-methylbenzamide] was 13300 nM; that for `CC(c1n[nH]c(=O)c2cc(F)c(F)cc12)N(C)C(=O)c1ccc2scnc2c1` (single isomer, unassigned) [Compound 85, N-(1-(6,7-difluoro-4-oxo-3,4-dihydrophthalazin-1-yl)ethyl)-N-methylbenzo[d]thiazole-5-carboxamide] was 2220 nM.

Still in this assay, the particulars now being: Hepatitis B virus, HepDE19, 168 h, HepDE19 cells, 7 day incubation, rcDNA measured by Quantigene 2.0 bDNA assay; top concentration 25 µM; read-out: DE-19bDNA EC50.
Regarding `CC(c1n[nH]c(=O)c2cc(F)c(F)cc12)N(C)C(=O)c1ccc(F)c(Cl)c1` (racemic) [Compound 68, 3-chloro-N-(1-(6,7-difluoro-4-oxo-3,4-dihydrophthalazin-1-yl)ethyl)-4-fluoro-N-methylbenzamide], the EC50 is 520 nM.
Same read-out and setting: the value for `CC(c1n[nH]c(=O)c2cc(F)c(F)cc12)N(C)C(=O)Nc1ccc(F)c(Cl)c1` (racemic) [Compound 29, 3-(3-chloro-4-fluorophenyl)-1-(1-(6,7-difluoro-4-oxo-3,4-dihydrophthalazin-1-yl)ethyl)-1-methylurea] was 23 nM; that for `CC(c1n[nH]c(=O)c2cc(F)c(F)cc12)N(C)C(=O)c1cc2cc(F)c(F)cc2[nH]1` (racemic) [Compound 50, N-(1-(6,7-difluoro-4-oxo-3,4-dihydrophthalazin-1-yl)ethyl)-5,6-difluoro-N-methyl-1H-indole-2-carboxamide] was 40 nM; that for `CC(c1nn(C)c(=O)c2cc(F)c(F)cc12)N(CCCO)C(=O)Nc1ccc(F)c(Cl)c1` (racemic) [Compound 25, 3-(3-chloro-4-fluorophenyl)-1-(1-(6,7-difluoro-3-methyl-4-oxo-3,4-dihydrophthalazin-1-yl)ethyl)-1-(3-hydroxypropyl)urea] was 10 nM.
On the same count and under the same terms, the value for `CC(C)CN(C(=O)Nc1ccc(F)c(Cl)c1)C(C)c1nn(C)c(=O)c2ccccc12` (racemic) [Compound 8, 3-(3-chloro-4-fluorophenyl)-1-isobutyl-1-(1-(3-methyl-4-oxo-3,4-dihydrophthalazin-1-yl)ethyl)urea] was 20 nM; that for `CC(C)CN(C(=O)Nc1ccc(F)cc1)C(C)c1nn(C)c(=O)c2ccccc12` (racemic) [Compound 9, 3-(4-fluorophenyl)-1-isobutyl-1-(1-(3-methyl-4-oxo-3,4-dihydrophthalazin-1-yl)ethyl)urea] was 30 nM; that for `CC(C)CN(C(=O)Nc1ccc(F)c(Cl)c1)C(C)c1nn(C)c(=O)c2cc(F)c(F)cc12` (racemic) [Compound 23, 3-(3-chloro-4-fluorophenyl)-1-(1-(6,7-difluoro-3-methyl-4-oxo-3,4-dihydrophthalazin-1-yl)ethyl)-1-isobutylurea] was 3 nM.
The same measure, in the same setting: the value for `CC(c1n[nH]c(=O)c2cc(F)ccc12)N(C)C(=O)Nc1ccc(F)c(Cl)c1` (racemic) [Compound 17, 3-(3-chloro-4-fluorophenyl)-1-(1-(6-fluoro-4-oxo-3,4-dihydrophthalazin-1-yl)ethyl)-1-methylurea] was 81 nM.
On to `CC(c1n[nH]c(=O)c2cc(F)c(F)cc12)N(C)C(=O)c1cc(F)c(F)c(F)c1` (racemic) [Compound 67, N-(1-(6,7-difluoro-4-oxo-3,4-dihydrophthalazin-1-yl)ethyl)-3,4,5-trifluoro-N-methylbenzamide], for which the EC50 is 740 nM.
On the same count and under the same terms, with `CC(C)CN(C(=O)Nc1ccc(F)c(Cl)c1)C(C)c1n[nH]c(=O)c2cc(F)c(F)cc12` (racemic) [Compound 27, 3-(3-chloro-4-fluorophenyl)-1-(1-(6,7-difluoro-4-oxo-3,4-dihydrophthalazin-1-yl)ethyl)-1-isobutylurea] the figure was 2 nM; with `CC(C)CN(C(=O)Nc1ccc(F)c(Cl)c1)C(C)c1n[nH]c(=O)c2ccccc12` (racemic) [Compound 2, 3-(3-chloro-4-fluoro-phenyl)-1-isobutyl-1-[1-(4-oxo-3H-phthalazin-1-yl)ethyl]urea], 10 nM.
The same measure, in the same setting: the value for `CC(c1n[nH]c(=O)c2cc(F)c(F)cc12)N(C)C(=O)c1ccc(Br)c(F)c1` (racemic) [Compound 63, 4-bromo-N-(1-(6,7-difluoro-4-oxo-3,4-dihydrophthalazin-1-yl)ethyl)-3-fluoro-N-methylbenzamide] was 60 nM.

The assay is the same for the next values; noted with them: Hepatitis B virus, HepDE19, 168 h, read-out: DE-19bDNA EC50.
Take `C[C@H](c1n[nH]c(=O)c2cc(F)c(F)cc12)N(C)C(=O)Nc1ccc(F)cc1` [Compound 43, (R)(1-(6,7-difluoro-4-oxo-3,4-dihydrophthalazinyl)ethyl)-3-(4-fluorophenyl)methylurea]: the EC50 came to 59 nM.
On the same count and under the same terms, the value for `CC(C)CN(C(=O)NC1CCCC1)C(C)c1nn(C)c(=O)c2cc(F)c(F)cc12` (racemic) [Compound 35, 3-cyclopentyl-1-(1-(6,7-difluoro-3-methyl-4-oxo-3,4-dihydrophthalazin-1-yl)ethyl)-1-isobutylurea] was 6900 nM; that for `CC(C)CN(C(=O)Nc1ccccc1)C(C)c1n[nH]c(=O)c2cc(F)c(F)cc12` (stereo not shown) [Compound 40, 1-(1-(6,7-difluoro-4-oxo-3,4-dihydrophthalazin-1-yl)ethyl)-1-isobutyl-3-phenylurea] was 17 nM.
Same read-out and setting: with `CC(C)CN(C(=O)Nc1ccccc1)C(C)c1n[nH]c(=O)c2cc(F)c(F)cc12` (racemic) [Compound 28, 1-(1-(6,7-difluoro-4-oxo-3,4-dihydrophthalazin-1-yl)ethyl)-1-isobutyl-3-phenylurea] the figure was 12 nM.

The values above are taken from patent US20230312481A1, “SUBSTITUTED (PHTHALAZIN-1-YLMETHYL)UREAS, SUBSTITUTED N-(PHTHALAZIN-1-YLMETHYL)AMIDES, AND ANALOGUES THEREOF” (priority 2020, published 2023).
